Common to all, as to format: physicochemical
Data set [1] can be described thus: Solubility in water (supersaturated solution, content by HPLC). The note with it: for Solubility: 2 hours, monohydrochloride. An excerpt: In this application, the HPLC parameters for chemical stability and solubility are as follows: […]
Data set [2] can be described thus: Stability of the crystal form in tablets (XRPD before and after storage). The note with it: 25°C/60% RH. The procedure:
(§1) Following the formulation in Table 6, API, lactose hydrate, polyvinylpyrrolidone, hydroxypropyl cellulose, microcrystalline cellulose and magnesium stearate were mixed and compressed to obtain a tablet core. Subsequently, the tablet cores were coated with a solution/suspension for film coating. Table 6 Tablet formulations
The tablets containg Form 2 of tolebrutinib monohydrochloride Form 2 tablets and Form 1 of tolebrutinib monohydrochloride were placed at 25°C/60% RH for 14 days, respectively. XRPD tests were performed before and after storage. The XRPD comparison plots before and after storage are shown in FIG. 26 and FIG. 27, respectively.

Data set [3] in a line: Stability study of the solid forms under long-term, accelerated, light and oxidation conditions (HPLC and XRPD). Conditions: for Purity after placing / Purity after: HPLC; for Purity after placing: initial purity 99.46%; for Sample after placing / crystal form after storage: XRPD; for Purity after: initial purity 99.50%. The procedure:
In this application, X-ray powder diffraction (XRPD) data were collected using a BrukerD8 Advance diffractometer; parameters are as follows: Cu radiation; wavelength: 1.54Å; Current voltage: 40KV, 40mA; Scan range: 3 to 40°2θ.
In this application, the HPLC parameters for chemical stability and solubility are as follows:
An appropriate amount of Form 2 of tolebrutinib monohydrochloride prepared in example 2-1 of this application was placed under long-term (25°C/60% RH/open), accelerated (40°C/75% RH/open), light (25°C/4500lx/closed), and oxidation (in a urea peroxide atmosphere) conditions. Table 1 Stability of Form 2 of tolebrutinib monohydrochloride
An appropriate amount of tolebrutinib monohydrochloride Form1 sample prepared in Example 3-1 of this application was taken and placed under long-term (25°C/60% RH/open) and accelerated (40°C/75% RH/open) conditions, HPLC and XRPD testing were regularly conducted. Table 2 Stability of Form 1 of tolebrutinib monohydrochloride

Data set [4] is described as follows: Crystal form before and after the tableting process (XRPD).
From the text: as §1

Data set [5] can be described thus: Dynamic vapor sorption (DVS) hygroscopicity. The procedure:
In this application, dynamic moisture adsorption analysis (DVS) data and isothermal adsorption analysis data were obtained using a TA Instruments Q5000 TGA; parameters are as follows: temperature: 25°C; relative humidity range: 0%RH-80%RH; dm/dt =0.001%/min; equilibration time: 90min; gas: N2; sample pan: platinum pan.

Data set [6] in a line: Compressibility study (tablet compression, hardness, tensile strength). The note with it: for hardness: radial breaking force, tablet hardness tester, main pressure 1.8 KN; for diameters / thicknesses: tablet, Φ7.5mm punch, mean main pressure 1.8 KN. As for the experimental part:
The tablet compression was conducted using a Tianxiang rotary tablet press. A circular punch with a diameter of 7.5 mm (Φ7.5mm), a filling depth of 17.9 mm and a mean main pressure of 1.8 KN were used. The tablets' radial breaking force (hardness, H) was measured using a tablet hardness tester. The tablets' diameter (D) and thickness (L) were measured using a vernier caliper. The tensile strength (T) of the powder was calculated using the formula T=2H/πDL*9.8. The results are shown in Table 5: Table 5 Compressibility of Form 2 of tolebrutinib monohydrochloride and Form 1 of tolebrutinib monohydrochloride

Data set [7] in a line: Stability study of the solid forms under long-term, accelerated, light and oxidation conditions (HPLC and XRPD). Conditions: long-term (25°C/60%RH) and accelerated (40°C/75%RH) conditions for 14 days; XRPD.
The mark [8] stands for this setting: light (25°C/4500lx/closed) and oxidation (in a urea peroxide atmosphere) conditions.
Where [9] appears, read: listed as Form 1 of monohydrochloride.
Where [10] appears, read: light, 25°C/45001x/closed, 14 days.
Setting [11] is: long-term (25°C/60%RH) and accelerated (40°C/75%RH) conditions for 14 days.
[12] abbreviates: oxidation, in a urea peroxide atmosphere, 14 days.
[13] abbreviates: listed as Form 2 of monohydrochloride.

Counter-ions that a name gives are not always drawn.

The Solubility is how much of the substance goes into solution per volume. Broadly, the solubility is the dissolved amount per volume that the medium holds. A higher solubility goes with much dissolved substance.

Regarding `C=CC(=O)N1CCC[C@@H](n2c(=O)n(-c3ccc(Oc4ccccc4)cc3)c3c(N)nccc32)C1` [Form 1 of tolebrutinib monohydrochloride, tolebrutinib monohydrochloride], the Solubility result in data set [1] (listed as Form 1 of the monohydrochloride salt of tolebrutinib) is listed as “approximately 8.3 mg/mL”. In data set [1], the Solubility was 8260 µg/mL. Besides, the “time crystal form remains stable in tablets / formulation with excipients” value in data set [2] is “at least 14 days”. In data set [3] (25°C/60%RH/open, 10 months), the Purity after placing came to 99.37% and the Sample after placing entry is given as “Form 1 of monohydrochloride”. In addition, in data set [3] (40°C/75%RH/open, 10 months), the Purity after placing was 98.63% and the Sample after placing result is “Form 1 of monohydrochloride”. Further, in data set [3] (setting [8]), the time remaining stable result is recorded as “at least 14 days”. In addition, the time remaining stable entry in data set [3] (long-term (25°C/60% RH/open) and accelerated (40°C/75% RH/open) conditions, monohydrochloride) was “at least 10 months”. The “crystal form after storage” value in data set [3] (long-term and accelerated conditions for 10 months) was “remains unchanged”. Further, the “crystal form before and after the tableting process” value in data set [4] is reported as “remained unchanged”. The DVS weight change result in data set [5] (between 20% RH to 80% RH at 25 °C) is reported as “about 1.2%”. For the same molecule, the “weight gain (hygroscopicity)” value in data set [5] (humidity range of 0%RH to 80%RH) is on record as approximately 0.9%. Further, the tensile strength in data set [6] (calculated with T=2H/πDL*9.8, listed as Form 1 of monohydrochloride) is given as 1.2 MPa. Further, in data set [6] (setting [9]), the hardness is given as 6.16 kg, the diameters came to 7.49 mm and the thicknesses was determined as 4.19 mm.

As for `C=CC(=O)N1CCC[C@@H](n2c(=O)n(-c3ccc(Oc4ccccc4)cc3)c3c(N)nccc32)C1` [Form 2 of tolebrutinib monohydrochloride, tolebrutinib monohydrochloride], the solubility at 2 hours in data set [1] (water, thermodynamic from solid) is approximately 7000 µg/mL. Further, the “time crystal form remains stable in tablets / formulation with excipients” value in data set [2] was “at least 14 days”. Also, the Purity after was 99.26% in data set [3] (25°C/60%RH/open, 14 days); 99.30% in data set [3] (40°C/75%RH/open, 14 days); 99.35% in data set [3] (setting [10]); 99.07% in data set [3] (setting [12]). The Sample after placing result is listed as “Form 2 of monohydrochloride” in data set [3] (25°C/60%RH/open, 14 days); “Form 2 of monohydrochloride” in data set [3] (40°C/75%RH/open, 14 days); “Form 2 of monohydrochloride” in data set [3] (setting [10]); “Form 2 of monohydrochloride” in data set [3] (setting [12]). Also, the time remaining stable entry in data set [3] (setting [8]) is “at least 14 days”; in data set [3] (long-term (25°C/60% RH/open) and accelerated (40°C/75% RH/open) conditions, listed as Form 2 of monohydrochloride, monohydrochloride), “at least 14 days”. Also, in data set [3] (setting [11]), the “crystal form after storage” value is “remains unchanged”. Also, in data set [4], the “crystal form before and after the tableting process” value is recorded as “remained unchanged”. In addition, in data set [5] (XRPD before and after DVS), the “crystal form before and after DVS” value is reported as “remained unchanged”. In addition, in data set [6] (calculated with T=2H/πDL*9.8, listed as Form 2 of monohydrochloride), the tensile strength is on record as 1.0 MPa. In data set [6] (setting [13]), this molecule gave a hardness of 5.33 kg. In addition, in data set [6] (setting [13]), the diameters came out at 7.50 mm. This molecule also registered a thicknesses in data set [6] (setting [13]) of 4.23 mm.

For the molecule `C=CC(=O)N1CCCC(n2c(=O)n(-c3ccc(Oc4ccccc4)cc3)c3c(N)nccc32)C1.O=C(O)C=CC(=O)O` (centres unmarked) [maleate Form 1, tolebrutinib maleate], the “crystal form after storage” value in data set [7] is reported as “remains unchanged”; in data set [3] (setting [11]) it was “remained the same crystalline form”.

Values taken from patent publication EP4342468A1, “TOLEBRUTINIB SALT AND CRYSTAL FORM THEREOF, PREPARATION METHOD THEREFOR, PHARMACEUTICAL COMPOSITION THEREOF, AND USE THEREOF” (Hangzhou Solipharma Co., Ltd., priority 2021, dated 2022).
